Assay results published in patent US7026516B2 (priority 2000, dated 2006).
Like-named read-outs stand apart in the source and are kept apart here.

Columns and labels:
dopamine transporter = target: T1, dopamine transporter (Macaca fascicularis, UniProt Q9GJT6); assay: Inhibition of [3H]WIN 35,428 binding to the dopamine transporter in monkey caudate-putamen
T1 construct: Each caudate-putamen was homogenized and used separately for dopamine and serotonin transporter assays; from tissue; host or cells: caudate-putamen membranes of adult cynomolgus or rhesus monkey brain

serotonin transporter = target: T2, serotonin transporter (Macaca mulatta, UniProt Q9MYX0); assay: biochemical; format: binding
T2 construct: Each caudate-putamen was homogenized and used separately for dopamine and serotonin transporter assays; from tissue; host or cells: caudate-putamen membranes of adult cynomolgus or rhesus monkey brain
Protocol: The affinities and transporter selectivities of the drugs were assessed in brain tissue of adult cynomolgus or rhesus monkey (Macaca fasicularis or Macaca Mulatta). Caudate-putamen was the source of the dopamine and serotonin transporters. The dopamine transporter affinity was measured with [3H]WIN 35,428 ([3H]CFT), the serotonin transporter was measured with [3H]citalopram and the norepinephrine transporter was measured with [3H]nisoxetine. Affinities of selected compounds were also measured at the human dopamine transporter in HEK-293 cells expressing the human dopamine transporter (hDAT).
Brain tissue was harvested from adult male and female cynomolgus (Macaca fasicularis) or rhesus (Macaca Mulatta) monkeys euthanized in the course of other research or after spontaneous death. Tissue was stored in the brain bank at the New England Regional Primate Research Center at −85° C. The caudate-putamen (approximately 1.5 g) was dissected from coronal sections of brain. Each caudate-putamen was homogenized and used separately for dopamine and serotonin transporter assays. Prior to homogenization, the thalamus from two brains was pooled and membranes were prepared as described previously for norepinephrine transporter assays (Madras et al., Synapse, 22:231–232, 1998; Madras et al., Synapse, 24:340–348, 1996). Briefly, the tissue was homogenized in 10 volumes (w/v) of ice-cold Tris.HCl buffer (50 mM, pH 7.4 at 0–4° C.) and centrifuged at 38,700×g for 20 min in the cold. The resulting pellet was resuspended in 40 volumes of buffer, and the entire wash procedure was repeated twice. The membrane suspension (25 mg original wet weight of tissue/ml) was diluted to 12 mg/ml in buffer just prior to assay and dispersed with a Brinkmanm polytron (setting #5) for 15 sec. […] All experiments were conducted in triplicate and each experiment was repeated in 2–4 individual tissue preparations.
The serotonin transporter was assayed in caudate-putamen membranes using similar assay conditions as for the dopamine transporter. […] The affinity of drugs for the serotonin transporter labeled by [^3H]citalopram (spec. act.: approximately 85 Ci/mmol, NEN) was determined in experiments by incubating tissue with a fixed concentration of [^3H]citalopram and a range of concentrations of drug. Assays were conducted in Tris-HCl buffer containing NaCl (100 mM) and the following constituents: [^3 H]citalopram (1 nM, 0.2 ml), test drug (1 pM–100 TM, 0.2 ml) and tissue (0.2 ml, 3 mg/ml original wet tissue weight). The 2 h incubation (0–4° C.) was initiated by addition of membranes and terminated by rapid filtration over Whatman GF/B glass fiber filters pre-soaked 1 hour in 0.1% polyethyleneimine. The filters were washed three times with 5 ml Tris.HCl buffer (50 mM), and the remaining steps were carried out as described above. Total binding was defined as [^3H]citalopram bound in the presence of ineffective concentrations of unlabeled citalopram (1 pM) or the test compounds. Non-specific binding was defined as [^3H]citalopram bound in the presence of an excess (10 TM) of fluoxetine. Specific binding was the difference between the two values. Cpm were converted to dpm following determination of counting efficiency (>45%) of each vial by external standardization.
Data were analyzed by the EBDA and LIGAND computer software programs (ElsevierBiosoft, U.K.) Final estimates of IC50 and nH values were computed by the EBDA program. Baseline values for the individual drugs were established by computer analysis, using the baseline drugs as a guide. The LIGAND program provided final parameter estimates for the affinity of the radioligand (Kd) by iterative non-linear curve-fitting and evaluation of one- or two-component binding models. LIGAND was used to measure the affinity of the radioligands at the dopamine and serotonin transporter. Graphs (not shown) were produced by the computer software program PRISM, using a one- or two-site competition analysis curve.

[1] = Table 2, affinity at the dopamine transporter, read-out: DAT IC50
[2] = Table 2, ratio of SERT and DAT IC50 values
[3] = Table 2, affinity at the serotonin transporter, read-out: SERT IC50
[4] = read-out: IC50, binding potency at the DAT
[5] = Table 1, [3H]citalopram, monkey caudate-putamen, mean of 3 or more experiments, read-out: SERT IC50
[6] = Table 1, [3H]WIN 35,428, monkey caudate-putamen, mean of 3 or more experiments, read-out: DAT IC50

T2 sequence (Q9MYX0 whole entry): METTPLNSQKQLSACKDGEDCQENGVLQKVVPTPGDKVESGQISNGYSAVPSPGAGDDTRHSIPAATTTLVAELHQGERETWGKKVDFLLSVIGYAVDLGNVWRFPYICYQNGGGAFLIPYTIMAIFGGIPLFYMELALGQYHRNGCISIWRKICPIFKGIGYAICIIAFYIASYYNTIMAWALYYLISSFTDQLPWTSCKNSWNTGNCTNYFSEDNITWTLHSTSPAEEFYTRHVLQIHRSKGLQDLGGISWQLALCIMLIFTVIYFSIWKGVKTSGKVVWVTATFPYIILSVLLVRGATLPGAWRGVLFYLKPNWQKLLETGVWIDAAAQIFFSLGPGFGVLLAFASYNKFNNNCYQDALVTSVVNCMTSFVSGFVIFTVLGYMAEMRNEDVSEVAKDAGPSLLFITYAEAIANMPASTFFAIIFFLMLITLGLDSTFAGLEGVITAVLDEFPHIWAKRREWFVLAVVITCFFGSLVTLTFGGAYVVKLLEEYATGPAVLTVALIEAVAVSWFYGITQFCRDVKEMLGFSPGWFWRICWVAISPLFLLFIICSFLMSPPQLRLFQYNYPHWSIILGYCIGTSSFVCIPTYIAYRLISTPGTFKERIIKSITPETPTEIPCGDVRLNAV
T1 sequence (Q9GJT6 whole entry): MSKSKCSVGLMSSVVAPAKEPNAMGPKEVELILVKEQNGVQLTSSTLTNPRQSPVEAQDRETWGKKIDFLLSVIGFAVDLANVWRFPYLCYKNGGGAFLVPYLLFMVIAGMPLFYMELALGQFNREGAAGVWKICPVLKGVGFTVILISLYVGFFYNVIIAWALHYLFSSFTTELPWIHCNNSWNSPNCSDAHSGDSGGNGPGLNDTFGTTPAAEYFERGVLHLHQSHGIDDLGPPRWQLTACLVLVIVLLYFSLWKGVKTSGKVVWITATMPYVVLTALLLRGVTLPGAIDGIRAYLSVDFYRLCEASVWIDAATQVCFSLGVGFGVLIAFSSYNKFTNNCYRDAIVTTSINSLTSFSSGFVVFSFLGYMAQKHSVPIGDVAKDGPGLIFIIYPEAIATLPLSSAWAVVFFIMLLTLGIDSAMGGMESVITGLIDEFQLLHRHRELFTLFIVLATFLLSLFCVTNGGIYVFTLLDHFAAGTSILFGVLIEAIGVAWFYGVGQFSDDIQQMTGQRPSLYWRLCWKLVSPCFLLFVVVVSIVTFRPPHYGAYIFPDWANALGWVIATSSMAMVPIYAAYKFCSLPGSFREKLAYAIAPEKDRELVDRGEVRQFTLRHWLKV

SMILES | IC50 (dopamine transporter; [1]) [nM] | DAT/SERT RATIO (dopamine transporter; [2]) | IC50 (serotonin transporter; [3]) [nM] | IC50 (serotonin transporter; [5]) [nM] | also measured
O=C(O)C(c1ccc(Cl)c(Cl)c1)C1CCCCO1 (centres unmarked) |  |  |  |  | melting point: 138.9 to 139.9 °C
O=C(O)[C@H](c1ccc(Cl)c(Cl)c1)[C@H]1CCCCO1 |  |  |  |  | melting point: 139.1 to 140.1 °C
O=C(O)[C@H](c1ccc(Cl)c(Cl)c1)C1CCCCO1 (some centres unmarked) |  |  |  |  | melting point: 124.1 to 125.1 °C
CO[C@@H]1C[C@H](c2ccc(Cl)c(Cl)c2)c2ccccc21 (relative stereo) [Compound 0-1617, Cis-1-Methoxy-3-(3,4-dichlorophenyl)indans] | 130 ± 49.7 | >32 | > 4100 |  | 
CO[C@@H]1C[C@@H](c2ccc(Cl)c(Cl)c2)c2ccccc21 (relative stereo) [Compound 0-1630, Trans-1-Methoxy-3-(3,4-dichlorophenyl)indans] | 60 ± 23 | 6 | 334 ± 100 |  | 
CO[C@@H]1C[C@H](c2ccc3ccccc3c2)c2ccccc21 (relative stereo) [Compound 0-1833, Cis-3-(2-Naphthyl)-0-methylindanol] | 189 ± 12 | 2 | 422 ± 38 |  | 
CO[C@@H]1C[C@@H](c2ccc3ccccc3c2)c2ccccc21 (relative stereo) [Compound 0-1925, Trans-1-Methoxy-3-(2-naphthyl)indans] | 213 ± 27 | 0.6 | 136 ± 4.5 |  | 
COC(=O)C(c1ccc(Cl)c(Cl)c1)C1CCCCO1 (centres unmarked) [Compound 0-1730, 2-(3,4-Dichlorophenyl)tetrahydropyran-2-yl acetic acid methyl esters] |  |  | 2180 |  | 
COC(=O)C(c1ccc(Cl)c(Cl)c1)C1CCCCO1 (centres unmarked) [Compound 0-1731, 2-(3,4-Dichlorophenyl)tetrahydropyran-2-yl acetic acid methyl esters] | 286 ± 10.5 |  | 7800 |  | 
N#CC(c1ccc(Cl)c(Cl)c1)C1CCCCC1 (stereo not drawn) [Compound 8, α-cyclohexyl-3,4-dichlorobenzylcyanide] | 127 | 63 | 8000 | 8000 | IC50 (dopamine transporter; [4]): 127 to 146 nM; IC50 (serotonin transporter; read-out: IC50, binding potency at the SERT): 8000 to 12000 nM
N#CC(c1ccc(Cl)c(Cl)c1)C1CCCC1 (stereo not drawn) [Compound 10, α-cyclopentyl-3,4-dichlorobenzylcyanide] | 128 | 78 |  |  | IC50 (dopamine transporter; [6]): 128 nM
COC(=O)[C@H](c1ccc(Cl)c(Cl)c1)[C@H]1CCCCO1 [Compound O-1783] |  |  | > 10000 | > 10000 | IC50 (dopamine transporter): 17 ± 1.3 nM
COC(=O)[C@H](c1ccc(Cl)c(Cl)c1)[C@@H]1CCCCO1 [Compound O-1792, 2R-(3,4-Dichlorophenyl)tetrahydropyran-2′S-yl acetic acid methyl ester] |  |  | > 10000 | > 10000 | 
COC(=O)[C@@H](c1ccc(Cl)c(Cl)c1)[C@H]1CCCCO1 [Compound O-1793, 2S-(3,4-Dichlorophenyl)tetrahydropyran-2′R-yl acetic acid methyl ester] |  |  | > 10000 | > 10000 | 
COC(=O)[C@@H](c1ccc(Cl)c(Cl)c1)[C@@H]1CCCCO1 [Compound O-1794, 2S-(3,4-Dichlorophenyl)tetrahydropyran-2′S-yl acetic acid methyl ester] |  |  |  | 1660 | IC50 (dopamine transporter): 33.9 ± 8.6 nM
COC(=O)C(c1ccccc1)C1CCCCN1 (centres unmarked) [Methylphenidate, reference compound] |  |  |  |  | DAT/SERT RATIO (dopamine transporter): 5,800; IC50 (dopamine transporter): 17.2 ± 2.04 nM; IC50 (serotonin transporter): > 100000 nM
COC(=O)C(c1ccc2ccccc2c1)C1CCCCO1 (centres unmarked) [Naphthyl mixture, (2-Naphthyl)-(tetrahydropyran-2-yl) acetic acid methyl esters] | 300 | 16.7 | 5000 | 5000 | IC50 (dopamine transporter; [6]): 300 nM; IC50 (dopamine transporter; binding to the DAT, read-out: DAT IC50): 300 nM; IC50 (dopamine transporter; [4]): 300 nM; IC50 (serotonin transporter; binding to the SERT, read-out: SERT IC50): 5000 nM
